Laboratory results reported in US6872690B2, “Herbicidal 2-alkynyl-pyri (mi) dines” (WYETH, priority 2001, dated 2005).

What was measured:
Format in all cases: in vivo
Matricaria inodora [1] = test: Post-emergence herbicidal activity test; conditions: 2-4 weeks after treatment
Method in brief: (§1)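 Injury is scored on a rating scale 2 to 4 weeks after spraying. Seedlings receive test compound formulated from acetone solutions diluted with water, applied at about 0.025 to 0.4 kg per hectare per pot, and are then grown on greenhouse benches.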

Cassia obtusifolia [2] = test: Post-emergence herbicidal activity test; conditions: 2-4 weeks after treatment
Method in brief: as §1

Triticum aestivum [3] = test: Post-emergence herbicidal activity test; conditions: 2-4 weeks after treatment
Method in brief: as §1

Glycine max [4] = test: Post-emergence herbicidal activity test; conditions: 0.100 kg/ha, 2-4 weeks after treatment
Method in brief: as §1

Echinochloa crus-galli [5] = test: Post-emergence herbicidal activity test; conditions: 2-4 weeks after treatment
Method in brief: as §1

Alopecurus myosuroides [6] = test: Post-emergence herbicidal activity test; conditions: 2-4 weeks after treatment
Method in brief: as §1

Stellaria media = test: Post-emergence herbicidal activity test; conditions: 2-4 weeks after treatment
Method in brief: as §1

Zea mays [7] = test: Post-emergence herbicidal activity test; conditions: 2-4 weeks after treatment
Method in brief: as §1

Setaria viridis [8] = test: Post-emergence herbicidal activity test; conditions: 2-4 weeks after treatment
Method in brief: as §1

Galium aparine [9] = test: Post-emergence herbicidal activity test; conditions: 2-4 weeks after treatment
Method in brief: as §1

Ambrosia artemisifolia [10] = test: Post-emergence herbicidal activity test; conditions: 2-4 weeks after treatment
Method in brief: as §1

Ipomoea hederacea [11] = test: Post-emergence herbicidal activity test; conditions: 2-4 weeks after treatment
Method in brief: as §1

Digitaria sanguinalis [12] = test: Post-emergence herbicidal activity test; conditions: 2-4 weeks after treatment
Method in brief: as §1

Orysa sativa [13] = test: Post-emergence herbicidal activity test; conditions: 2-4 weeks after treatment
Method in brief: as §1

Abutilon theophrasti [14] = test: Post-emergence herbicidal activity test; conditions: 2-4 weeks after treatment
Method in brief: as §1

Matricaria inodora [15] = test: Pre-emergence test; conditions: 3 weeks after treatment
Method in brief: (§2)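 Damage scores are assigned 2 to 4 weeks post-treatment relative to untreated sown soil. Compounds are applied pre-emergence as aqueous-diluted acetone solutions (0.4% alkylphenol/ethylene oxide condensate) onto recently sown horticultural loam at 0.013, 0.025, 0.100 or 0.400 kg active/ha, 900 L/ha.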

Cassia obtusifolia [16] = test: Pre-emergence test; conditions: 3 weeks after treatment
Method in brief: as §2

Triticum aestivum [17] = test: Pre-emergence test; conditions: 3 weeks after treatment
Method in brief: as §2

Glycine max [18] = test: Pre-emergence test; conditions: 3 weeks after treatment
Method in brief: as §2

Echinochloa crus-galli [19] = test: Pre-emergence test; conditions: 3 weeks after treatment
Method in brief: as §2

Alopecurus myosuroides [20] = test: Pre-emergence test; conditions: 3 weeks after treatment
Method in brief: as §2

Zea mays [21] = test: Pre-emergence test; conditions: 3 weeks after treatment
Method in brief: as §2

Lamium purpureum = test: Pre-emergence test; conditions: 3 weeks after treatment
Method in brief: as §2

Setaria viridis [22] = test: Pre-emergence test; conditions: 3 weeks after treatment
Method in brief: as §2

Galium aparine [23] = test: Pre-emergence test; conditions: 3 weeks after treatment
Method in brief: as §2

Ambrosia artemisifolia [24] = test: Pre-emergence test; conditions: 3 weeks after treatment
Method in brief: as §2

Ipomoea hederacea [25] = test: Pre-emergence test; conditions: 3 weeks after treatment
Method in brief: as §2

Digitaria sanguinalis [26] = test: Pre-emergence test; conditions: 3 weeks after treatment
Method in brief: as §2

Orysa sativa [27] = test: Pre-emergence test; conditions: 3 weeks after treatment
Method in brief: as §2

Abutilon theophrasti [28] = test: Pre-emergence test; conditions: 3 weeks after treatment
Method in brief: as §2

Cc1cc(Oc2cc(C(F)(F)F)nn2C)nc(C#Cc2ccccc2)n1 [Example 161]
2 (2-Slight effect): Post-emergence application TRZWA (Triticum aestivum [3]; 0.100 kg/ha) | Post-emergence application TRZWA (Triticum aestivum [3]; 0.400 kg/ha) | Post-emergence application ECHCG (Echinochloa crus-galli [5]; 0.400 kg/ha) | Post-emergence application ALOMY (Alopecurus myosuroides [6]; 0.100 kg/ha) | Post-emergence application STEME (Stellaria media; 0.100 kg/ha) | Post-emergence application ZEAMX (Zea mays [7]; 0.100 kg/ha) | Post-emergence application ZEAMX (Zea mays [7]; 0.400 kg/ha) | Post-emergence application DIGSA (Digitaria sanguinalis [12]; 0.100 kg/ha) | Post-emergence application DIGSA (Digitaria sanguinalis [12]; 0.400 kg/ha) | Post-emergence application ORYSA (Orysa sativa [13]; 0.100 kg/ha) | Assessment (pre-emergence application) SETVI (Setaria viridis [22]; 0.025 kg/ha) | Assessment (pre-emergence application) MBEL (Ambrosia artemisifolia [24]; 0.025 kg/ha) | Assessment (pre-emergence application) MBEL (Ambrosia artemisifolia [24]; 0.100 kg/ha) | Assessment (pre-emergence application) ABUTH (Abutilon theophrasti [28]; 0.025 kg/ha)
5 (5-Definite injury): Post-emergence application AMBEL (Ambrosia artemisifolia [10]; 0.100 kg/ha) | Post-emergence application AMBEL (Ambrosia artemisifolia [10]; 0.400 kg/ha) | Post-emergence application ABUTH (Abutilon theophrasti [14]; 0.400 kg/ha) | Assessment (pre-emergence application) LAMPU (Lamium purpureum; 0.100 kg/ha)
9 (9-Complete kill): Post-emergence application IPOHE (Ipomoea hederacea [11]; 0.100 kg/ha) | Post-emergence application IPOHE (Ipomoea hederacea [11]; 0.400 kg/ha) | Assessment (pre-emergence application) ALOMY (Alopecurus myosuroides [20]; 0.025 kg/ha) | Assessment (pre-emergence application) DIGSA (Digitaria sanguinalis [26]; 0.400 kg/ha)
8 (8-Approaching complete kill): Post-emergence application GALAP (Galium aparine [9]; 0.400 kg/ha) | Assessment (pre-emergence application) MATIN (Matricaria inodora [15]; 0.400 kg/ha)
0 (0-No effect): Assessment (pre-emergence application) CASOB (Cassia obtusifolia [16]; 0.025 kg/ha) | Assessment (pre-emergence application) CASOB (Cassia obtusifolia [16]; 0.100 kg/ha) | Assessment (pre-emergence application) CASOB (Cassia obtusifolia [16]; 0.400 kg/ha) | Assessment (pre-emergence application) TRZWA (Triticum aestivum [17]; 0.025 kg/ha) | Assessment (pre-emergence application) TRZWA (Triticum aestivum [17]; 0.100 kg/ha) | Assessment (pre-emergence application) TRZWA (Triticum aestivum [17]; 0.400 kg/ha) | Assessment (pre-emergence application) GLXMA (Glycine max [18]; 0.025 kg/ha) | Assessment (pre-emergence application) GLXMA (Glycine max [18]; 0.100 kg/ha) | Assessment (pre-emergence application) ECHCG (Echinochloa crus-galli [19]; 0.025 kg/ha) | Assessment (pre-emergence application) ZEAMX (Zea mays [21]; 0.025 kg/ha) | Assessment (pre-emergence application) ZEAMX (Zea mays [21]; 0.100 kg/ha) | Assessment (pre-emergence application) ZEAMX (Zea mays [21]; 0.400 kg/ha) | Assessment (pre-emergence application) LAMPU (Lamium purpureum; 0.025 kg/ha) | Assessment (pre-emergence application) IPOHE (Ipomoea hederacea [25]; 0.025 kg/ha) | Assessment (pre-emergence application) ORYSA (Orysa sativa [27]; 0.025 kg/ha)
4 (4-Injury): Post-emergence application MATIN (Matricaria inodora [1]; 0.400 kg/ha) | Post-emergence application STEME (Stellaria media; 0.400 kg/ha) | Post-emergence application SETVI (Setaria viridis [8]; 0.100 kg/ha) | Post-emergence application ABUTH (Abutilon theophrasti [14]; 0.100 kg/ha) | Assessment (pre-emergence application) MATIN (Matricaria inodora [15]; 0.100 kg/ha) | Assessment (pre-emergence application) SETVI (Setaria viridis [22]; 0.100 kg/ha) | Assessment (pre-emergence application) ABUTH (Abutilon theophrasti [28]; 0.100 kg/ha) | Assessment (pre-emergence application) ABUTH (Abutilon theophrasti [28]; 0.400 kg/ha)
6 (6-Herbicidal effect): Post-emergence application SETVI (Setaria viridis [8]; 0.400 kg/ha)
1 (1-Trace effect): Post-emergence application CASOB (Cassia obtusifolia [2]; 0.100 kg/ha) | Post-emergence application ECHCG (Echinochloa crus-galli [5]; 0.100 kg/ha) | Assessment (pre-emergence application) GLXMA (Glycine max [18]; 0.400 kg/ha) | Assessment (pre-emergence application) ECHCG (Echinochloa crus-galli [19]; 0.100 kg/ha) | Assessment (pre-emergence application) ALOMY (Alopecurus myosuroides [20]; 0.100 kg/ha) | Assessment (pre-emergence application) GALAP (Galium aparine [23]; 0.025 kg/ha) | Assessment (pre-emergence application) GALAP (Galium aparine [23]; 0.100 kg/ha) | Assessment (pre-emergence application) DIGSA (Digitaria sanguinalis [26]; 0.025 kg/ha) | Assessment (pre-emergence application) ORYSA (Orysa sativa [27]; 0.100 kg/ha) | Assessment (pre-emergence application) ORYSA (Orysa sativa [27]; 0.400 kg/ha)
7 (7-Good herbicidal effect): Post-emergence application GALAP (Galium aparine [9]; 0.100 kg/ha) | Assessment (pre-emergence application) LAMPU (Lamium purpureum; 0.400 kg/ha) | Assessment (pre-emergence application) SETVI (Setaria viridis [22]; 0.400 kg/ha)
3 (3-Moderate effect): Post-emergence application MATIN (Matricaria inodora [1]; 0.100 kg/ha) | Post-emergence application CASOB (Cassia obtusifolia [2]; 0.400 kg/ha) | Post-emergence application GLXMA (Glycine max [4]) | Post-emergence application ALOMY (Alopecurus myosuroides [6]; 0.400 kg/ha) | Post-emergence application ORYSA (Orysa sativa [13]; 0.400 kg/ha) | Assessment (pre-emergence application) MATIN (Matricaria inodora [15]; 0.025 kg/ha) | Assessment (pre-emergence application) ECHCG (Echinochloa crus-galli [19]; 0.400 kg/ha) | Assessment (pre-emergence application) ALOMY (Alopecurus myosuroides [20]; 0.400 kg/ha) | Assessment (pre-emergence application) GALAP (Galium aparine [23]; 0.400 kg/ha) | Assessment (pre-emergence application) IPOHE (Ipomoea hederacea [25]; 0.100 kg/ha) | Assessment (pre-emergence application) IPOHE (Ipomoea hederacea [25]; 0.400 kg/ha) | Assessment (pre-emergence application) DIGSA (Digitaria sanguinalis [26]; 0.100 kg/ha)
